Our source for the IC50 and pD2 values is ChEMBL document CHEMBL1127212, “Preparation and evaluation of the antiaggregating and vasodilating activities of the novel 3-nitro-4(3H)-quinazolinone derivatives” (Bioorg Med Chem Lett, 1993).

Where only a bound is given, the exact number is not on record here.

What all share (format): functional
For assay [1], the species on record is Oryctolagus cuniculus. Put plainly: Tested in vitro for inhibition of aggregation induced by Collagen in rabbit platelet rich plasma at the dose of 10 ug/ml.
For assay [2], the species on record is Oryctolagus cuniculus. Put plainly: Tested in vitro for inhibition of aggregation induced by adenosine diphosphate (ADP) in rabbit platelet rich plasma at the dose of […].
For assay [3], the species on record is Oryctolagus cuniculus. Put plainly: Tested for inhibition of aggregation induced by arachidonic acid in rabbit platelet rich plasma in Vitro at the dose of 125 uM.
The species entered for assay [4] is Oryctolagus cuniculus. The experiment in a line: Tested for inhibition of aggregation induced by Collagen in rabbit platelet rich plasma in vitro at the dose of 10 ug/ml.
Assay [5] is filed under the species Oryctolagus cuniculus. Put plainly: Tested for inhibition of aggregation induced by adenosine diphosphate (ADP) in rabbit platelet rich plasma in vitro at the dose of […].
Assay [6] is filed under the species Oryctolagus cuniculus. Put plainly: Tested for vasodilating activity using a transverse strip preparation of rabbit thoracic aorta.
The species entered for assay [7] is Oryctolagus cuniculus. The experiment in a line: Tested in vitro for inhibition of aggregation induced by arachidonic acid in rabbit platelet rich plasma at the dose of 125 uM.

Turning to “SODIUM NITROPRUSSIDE [listing 1 of 2 here]”, the IC50 in the assay filed under Oryctolagus cuniculus [1] was under 1000 µM; in the assay listed under Oryctolagus cuniculus [2] it was 95 µM.

For `CC(=O)OC1N([N+](=O)[O-])C(=O)c2ccccc2N1[N+](=O)[O-]` (stereo unspecified), the results for the IC50 in the assay filed under Oryctolagus cuniculus [3], in the assay filed under Oryctolagus cuniculus [4] and in the assay filed under Oryctolagus cuniculus [5] were 50 µM, 52 µM and 48 µM, respectively. The compound also yielded a pD2 in the assay listed under Oryctolagus cuniculus [6] of 5.36.

As for `CC(=O)OC1N([N+](=O)[O-])C(=O)c2cc(Cl)ccc2N1[N+](=O)[O-]` (stereo unspecified), the IC50 in the assay filed under Oryctolagus cuniculus [1] (Oryctolagus cuniculus, Plasma) was determined as 52 µM; in the assay listed under Oryctolagus cuniculus [7], 40 µM; in the assay filed under Oryctolagus cuniculus [2] (Oryctolagus cuniculus, Plasma), 46 µM. The same compound registered a pD2 in the assay filed under Oryctolagus cuniculus [6] of 5.4.

With “SODIUM NITROPRUSSIDE [listing 2 of 2 here]”, the pD2 in the assay listed under Oryctolagus cuniculus [6] is 4.08.
